Experiments:
blackgrass [1] = assay: Test C preemergence; assay type: in vivo, Alopecurus myosuroides; details: preemergence, 0 to 100 scale (0 no effect, 100 complete control)
Summary of the method: (§1)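 Visual injury ratings on a 0–100 scale (100 = complete control) were made against untreated controls 10 days after treatment in the greenhouse. Compounds, formulated with surfactant in non-phytotoxic solvent, were sprayed on soil preemergence or onto one- to two-leaf plants 2–10 cm tall postemergence.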

soybean [2] = assay: Test C postemergence; assay type: in vivo, Glycine max; details: 10 days, 0 to 100 scale (0 no effect, 100 complete control)
Summary of the method: as §1

kochia [3] = assay: Test C postemergence; assay type: in vivo, Bassia scoparia; details: 10 days, 0 to 100 scale (0 no effect, 100 complete control)
Summary of the method: as §1

galium = assay: Test C postemergence; assay type: in vivo, Galium aparine; details: 10 days, 0 to 100 scale (0 no effect, 100 complete control)
Summary of the method: as §1

pigweed, palmer [4] = assay: Test C preemergence; assay type: in vivo, Amaranthus palmeri; details: preemergence, 0 to 100 scale (0 no effect, 100 complete control)
Summary of the method: as §1

oat, wild [5] = assay: Test C postemergence; assay type: in vivo, Avena fatua; details: 10 days, 0 to 100 scale (0 no effect, 100 complete control)
Summary of the method: as §1

ryegrass, Italian [6] = assay: Test C preemergence; assay type: in vivo, Lolium multiflorum; details: preemergence, 0 to 100 scale (0 no effect, 100 complete control)
Summary of the method: as §1

foxtail, giant [7] = assay: Test C postemergence; assay type: in vivo, Setaria faberi; details: 10 days, 0 to 100 scale (0 no effect, 100 complete control)
Excerpt: (§2) Seeds of plant species selected from barnyardgrass (Echinochloa crusgalli), blackgrass (Alopecurus myosuroides), corn (Zea mays), foxtail, giant (giant foxtail, Setaria faberi), green foxtail (Setaria viridis), goosegrass (Eleusine indica), kochia (Bassia scoparia), oat, wild (wild oat, Avena fatua), pigweed, palmer (palmer amaranth, palmer pigweed, Amaranthus palmeri), Pigweed, Redroot (redroot pigweed, Amaranthus retroflexus), ragweed (common ragweed, Ambrosia artemisiifolia), ryegrass, Italian ([…] ryegrass, Lolium multiflorum), soybean (Glycine max), and wheat (Triticum aestivum) were planted into a blend of loam soil and sand and treated preemergence with a directed soil spray using test chemicals formulated in a non-phytotoxic solvent mixture which included a surfactant. At the same time, plants selected from these crops and weed species and also galium (catchweed bedstraw, Galium aparine) and horseweed (Erigeron canadensis) were planted in pots containing the same blend of loam soil and sand and treated with postemergence applications of test chemicals formulated in the same manner. Plants ranged in height from 2 to 10 cm and were in the one- to two-leaf stage for the postemergence treatment. Treated plants and untreated controls were maintained in a greenhouse for 10 days, after which time all treated plants were compared to untreated controls and visually evaluated for injury. Plant response ratings, summarized in Table C, are based on a 0 to 100 scale where 0 is no effect and 100 is complete control. A dash (-) response means no test result.

ragweed [8] = assay: Test C preemergence; assay type: in vivo, Ambrosia artemisiifolia; details: preemergence, 0 to 100 scale (0 no effect, 100 complete control)
Summary of the method: as §1

wheat [9] = assay: Test C postemergence; assay type: in vivo, Triticum aestivum; details: 10 days, 0 to 100 scale (0 no effect, 100 complete control)
Summary of the method: as §1

soybean [10] = assay: Test C preemergence; assay type: in vivo, Glycine max; details: preemergence, 0 to 100 scale (0 no effect, 100 complete control)
Summary of the method: as §1

kochia [11] = assay: Test C preemergence; assay type: in vivo, Bassia scoparia; details: preemergence, 0 to 100 scale (0 no effect, 100 complete control)
Summary of the method: as §1

wheat [12] = assay: Test C preemergence; assay type: in vivo, Triticum aestivum; details: preemergence, 0 to 100 scale (0 no effect, 100 complete control)
Summary of the method: as §1

barnyardgrass [13] = assay: Test D flooded paddy test; assay type: in vivo, Echinochloa crus-galli; details: 250 g ai/ha, applied to paddy water, visual rating after 13 to 14 days, scale 0 to 100 (0 no effect, 100 complete control)
Summary of the method: (§3)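 Compounds go straight into paddy water over 2-leaf plants in pots flooded to 3 cm. Greenhouse holding lasts 13 to 14 days. Injury is scored by eye against controls from 0 (none) to 100 (complete control).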

corn [14] = assay: Test C preemergence; assay type: in vivo, Zea mays; details: preemergence, 0 to 100 scale (0 no effect, 100 complete control)
Summary of the method: as §1

horseweed = assay: Test C postemergence; assay type: in vivo, Erigeron canadensis; details: 10 days, 0 to 100 scale (0 no effect, 100 complete control)
Summary of the method: as §1

oat, wild [15] = assay: Test C preemergence; assay type: in vivo, Avena fatua; details: preemergence, 0 to 100 scale (0 no effect, 100 complete control)
Summary of the method: as §1

pigweed, palmer [16] = assay: Test C postemergence; assay type: in vivo, Amaranthus palmeri; details: 10 days, 0 to 100 scale (0 no effect, 100 complete control)
Summary of the method: as §1

ragweed [17] = assay: Test C postemergence; assay type: in vivo, Ambrosia artemisiifolia; details: 10 days, 0 to 100 scale (0 no effect, 100 complete control)
Summary of the method: as §1

ryegrass, Italian [18] = assay: Test C postemergence; assay type: in vivo, Lolium multiflorum; details: 10 days, 0 to 100 scale (0 no effect, 100 complete control)
Summary of the method: as §1

barnyardgrass [19] = assay: Test C preemergence; assay type: in vivo, Echinochloa crusgalli; details: preemergence, 0 to 100 scale (0 no effect, 100 complete control)
Summary of the method: as §1

ducksalad = assay: Test D flooded paddy test; assay type: in vivo, Heteranthera limosa; details: 250 g ai/ha, applied to paddy water, visual rating after 13 to 14 days, scale 0 to 100 (0 no effect, 100 complete control)
Summary of the method: as §3

barnyardgrass [20] = assay: Test C postemergence; assay type: in vivo, Echinochloa crusgalli; details: 10 days, 0 to 100 scale (0 no effect, 100 complete control)
Summary of the method: as §1

corn [21] = assay: Test C postemergence; assay type: in vivo, Zea mays; details: 10 days, 0 to 100 scale (0 no effect, 100 complete control)
Summary of the method: as §1

blackgrass [22] = assay: Test C postemergence; assay type: in vivo, Alopecurus myosuroides; details: 10 days, 0 to 100 scale (0 no effect, 100 complete control)
Summary of the method: as §1

foxtail, giant [23] = assay: Test C preemergence; assay type: in vivo, Setaria faberi; details: preemergence, 0 to 100 scale (0 no effect, 100 complete control)
Excerpt: as §2

sedge, umbrella = assay: Test D flooded paddy test; assay type: in vivo, Cyperus difformis; details: 250 g ai/ha, applied to paddy water, visual rating after 13 to 14 days, scale 0 to 100 (0 no effect, 100 complete control)
Summary of the method: as §3

rice = assay: Test D flooded paddy test; assay type: in vivo, Oryza sativa; details: 250 g ai/ha, applied to paddy water, visual rating after 13 to 14 days, scale 0 to 100 (0 no effect, 100 complete control)
Summary of the method: as §3

Compound: CC(C)c1cc(C(=O)N2C[C@H](C)Oc3c(Cl)cccc32)cc(-n2cncn2)c1 [Compound 316]
- Blackgrass plant response rating (blackgrass [1]; 500 g ai/ha): 90
- Blackgrass plant response rating (blackgrass [1]; Test C, 125 g ai/ha): 50
- Plant response rating, Soybean (soybean [2]; 500 g ai/ha, postemergence): 100
- Plant response rating, Soybean (soybean [2]; Postemergence, 125 g ai/ha): 100
- Plant response rating, Kochia (kochia [3]; 500 g ai/ha, postemergence): 80
- Plant response rating, Kochia (kochia [3]; Postemergence, 125 g ai/ha): 30
- Plant response rating, Galium (galium; 500 g ai/ha, postemergence): 90
- Plant response rating, Galium (galium; Postemergence, 125 g ai/ha): 40
- Pigweed, Palmer plant response rating (pigweed, palmer [4]; 500 g ai/ha): 90
- Pigweed, Palmer plant response rating (pigweed, palmer [4]; Test C, 125 g ai/ha): 60
- Plant response rating, Oat, Wild (oat, wild [5]; 500 g ai/ha, postemergence): 20
- Plant response rating, Oat, Wild (oat, wild [5]; Postemergence, 125 g ai/ha): 0
- Ryegrass, Italian plant response rating (ryegrass, Italian [6]; 500 g ai/ha): 90
- Ryegrass, Italian plant response rating (ryegrass, Italian [6]; Test C, 125 g ai/ha): 70
- Plant response rating, Foxtail, Giant (foxtail, giant [7]; 500 g ai/ha, postemergence): 90
- Plant response rating, Foxtail, Giant (foxtail, giant [7]; Postemergence, 125 g ai/ha): 10
- Ragweed plant response rating (ragweed [8]; 500 g ai/ha): 0
- Ragweed plant response rating (ragweed [8]; Test C, 125 g ai/ha): 0
- Plant response rating, Wheat (wheat [9]; 500 g ai/ha, postemergence): 20
- Plant response rating, Wheat (wheat [9]; Postemergence, 125 g ai/ha): 10
- Soybean plant response rating (soybean [10]; 500 g ai/ha): 50
- Soybean plant response rating (soybean [10]; Test C, 125 g ai/ha): 0
- Kochia plant response rating (kochia [11]; 500 g ai/ha): 0
- Kochia plant response rating (kochia [11]; Test C, 125 g ai/ha): 0
- Wheat plant response rating (wheat [12]; 500 g ai/ha): 20
- Wheat plant response rating (wheat [12]; Test C, 125 g ai/ha): 0
- Plant response rating, Barnyardgrass (Flood) (barnyardgrass [13]): 0
- Corn plant response rating (corn [14]; 500 g ai/ha): 40
- Corn plant response rating (corn [14]; Test C, 125 g ai/ha): 10
- Plant response rating, Horseweed (horseweed; 500 g ai/ha, postemergence): 0
- Plant response rating, Horseweed (horseweed; Postemergence, 125 g ai/ha): 0
- Oat, Wild plant response rating (oat, wild [15]; 500 g ai/ha): 40
- Oat, Wild plant response rating (oat, wild [15]; Test C, 125 g ai/ha): 20
- Plant response rating, Pigweed, Palmer (pigweed, palmer [16]; 500 g ai/ha, postemergence): 60
- Plant response rating, Pigweed, Palmer (pigweed, palmer [16]; Postemergence, 125 g ai/ha): 30
- Plant response rating, Ragweed (ragweed [17]; 500 g ai/ha, postemergence): 0
- Plant response rating, Ragweed (ragweed [17]; Postemergence, 125 g ai/ha): 0
- Plant response rating, Ryegrass, Italian (ryegrass, Italian [18]; 500 g ai/ha, postemergence): 80
- Plant response rating, Ryegrass, Italian (ryegrass, Italian [18]; Postemergence, 125 g ai/ha): 30
- Barnyardgrass plant response rating (barnyardgrass [19]; 500 g ai/ha): 90
- Barnyardgrass plant response rating (barnyardgrass [19]; Test C, 125 g ai/ha): 30
- Plant response rating, Ducksalad (Flood) (ducksalad): 0
- Plant response rating, Barnyardgrass (barnyardgrass [20]; 500 g ai/ha, postemergence): 50
- Plant response rating, Barnyardgrass (barnyardgrass [20]; Postemergence, 125 g ai/ha): 10
- Plant response rating, Corn (corn [21]; 500 g ai/ha, postemergence): 70
- Plant response rating, Corn (corn [21]; Postemergence, 125 g ai/ha): 20
- Plant response rating, Blackgrass (blackgrass [22]; 500 g ai/ha, postemergence): 70
- Plant response rating, Blackgrass (blackgrass [22]; Postemergence, 125 g ai/ha): 50
- Foxtail, Giant plant response rating (foxtail, giant [23]; 500 g ai/ha): 100
- Foxtail, Giant plant response rating (foxtail, giant [23]; Test C, 125 g ai/ha): 80
- Plant response rating, Sedge, Umbrella (Flood) (sedge, umbrella): 0
- Plant response rating, Rice (Flood) (rice): 0

Reference: US20260262643A1, “HERBICIDAL BENZOXAZINES” (FMC CORPORATION, priority 2022, published 2026)
